In US8168667B2 (Galapagos NV, priority 2006, dated 2012):
Like-named read-outs stand apart in the source and are kept apart here.

Molecular target: T1, human androgen receptor (hAR) (Homo sapiens, UniProt P10275)
T1 sequence (P10275 1-920): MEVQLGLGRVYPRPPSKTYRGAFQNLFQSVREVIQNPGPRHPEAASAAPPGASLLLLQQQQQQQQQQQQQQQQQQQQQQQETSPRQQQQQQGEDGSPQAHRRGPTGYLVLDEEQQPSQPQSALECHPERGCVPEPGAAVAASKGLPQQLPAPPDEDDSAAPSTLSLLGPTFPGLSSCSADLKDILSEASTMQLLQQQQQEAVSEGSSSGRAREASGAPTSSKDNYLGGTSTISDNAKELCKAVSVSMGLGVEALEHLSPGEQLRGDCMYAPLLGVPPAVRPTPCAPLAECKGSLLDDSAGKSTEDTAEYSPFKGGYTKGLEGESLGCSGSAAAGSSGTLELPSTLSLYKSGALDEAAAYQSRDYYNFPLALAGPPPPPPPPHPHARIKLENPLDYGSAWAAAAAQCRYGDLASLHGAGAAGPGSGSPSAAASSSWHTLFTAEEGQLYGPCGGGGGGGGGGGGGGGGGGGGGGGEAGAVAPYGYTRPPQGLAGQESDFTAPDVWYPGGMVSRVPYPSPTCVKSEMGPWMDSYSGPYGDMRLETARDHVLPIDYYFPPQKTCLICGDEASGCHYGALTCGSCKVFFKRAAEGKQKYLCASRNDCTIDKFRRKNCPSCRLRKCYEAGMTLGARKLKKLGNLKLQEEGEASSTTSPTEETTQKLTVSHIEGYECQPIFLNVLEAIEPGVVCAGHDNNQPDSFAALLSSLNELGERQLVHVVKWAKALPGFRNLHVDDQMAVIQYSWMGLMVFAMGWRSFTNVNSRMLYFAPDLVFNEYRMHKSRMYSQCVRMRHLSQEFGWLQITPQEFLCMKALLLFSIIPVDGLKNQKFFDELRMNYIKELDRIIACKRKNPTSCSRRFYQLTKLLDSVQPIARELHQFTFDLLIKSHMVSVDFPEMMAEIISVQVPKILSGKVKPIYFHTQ
Assay: Functional response test: hAR transactivation (luciferase reporter) in HALP2 cells
Type: cell-based
Settings: for EC50: agonism, HALP2 cells (HeLa, hAR + ARE-luciferase), 20 hours at 37° C.
From the text: This test constitutes a method of identifying pure or partial agonists which mimic the effects of natural hormones, such as DHT (dihydrotestosterone) in the present case or, on the other hand, antagonists which inhibit them.
For this transactivation test, plasmids encoding a reporter gene and the human androgen receptor (hAR) are introduced together by transfection into the HeLa cell line. The reporter plasmid contains luciferase cDNA under the control of the AREs contained in the promoter sequences of the probasin gene (3xpbAREminicoll-luciferase/pGL3-puro). The expression of the reporter gene constitutes an indication of the transcriptional activity of hAR. It also encodes a protein allowing the cells expressing it to resist a treatment with puromycin. The plasmid encoding hAR contains the cDNA of hAR under the control of the Cytomegalovirus (CMV) promoter. It also encodes a protein allowing the cells expressing it to resist a treatment with neomycin. The treatment of cells with increasing amounts of potentially agonistic compounds will increase the expression of the reporter gene. To detect antagonists, on the other hand, increasing doses of test compounds are tested in the presence of […] of DHT. The expression of the reporter gene, which is constant for each dose of DHT, decreases when the concentration of the test compounds increases.
For this test, HeLa cells were obtained from the American Type Culture Collection (Rockville, Md.) and cultivated in DMEM medium containing 4.5 g/l of glucose, supplemented with Glutamax and with nonessential amino-acids and with 10% of foetal calf serum (SVF; Dominique Dutscher).
On the day before transfection, a million cells were seeded in DMEM medium without phenol red, supplemented with Glutamax and with desteroided SVF (5%) in Petri dishes. The cells were transfected with 4 μg of the puromycin resistance plasmids pcDNA3-hAR and 3xpbAREminicoll-luciferase/pGL3 using the reagent “Lipofectamine plus” (Invitrogen), following the supplier's recommendations. The day after transfection, the cells were seeded to different cell densities (10,000 to 100,000 cellules per Petri dish). Two days after transfection, the transfected cells were selected in DMEM medium without phenol red, supplemented with Glutamax and with desteroided SVF (5%) containing 400 μg/mL of G418 (Invitrogen) and 150 ng/mL of puromycin (Sigma). The culture medium was renewed weekly until resistant clones appeared. The resistant clones were removed and amplified before being tested for their functional response. […]
The functional response test was conducted on 96-well plates. The HALP2 cells were seeded (30,000 cells per well) 24 hours before the phase of stimulation in DMEM medium containing 4.5 g/L of glucose, supplemented with Glutamax and nonessential amino-acids, and with desteroided SVF (5%).
On the day of stimulation, the seeding medium was replaced by DMEM medium without phenol red, supplemented with Glutamax and with desteroided SVF (5%). […] The cells were placed in contact with the compounds for 20 hours at 37° C.

[1] = antagonism, concentration which increases the EC50 of the DHT by a factor of 2, Schild regression, HALP2 cells

SMILES | EC50 | KSchild (nM) potency [1] | KSchild (nM) potency
N#Cc1ccc(N2C(=O)C(c3ccc(O)cc3)N(CCO)C2=O)cc1C(F)(F)F (centres unmarked) [Example 137] |  |  | 24.49 nM
COc1ccc([C@]2(C)C(=O)N(c3ccc(C#N)c(C(F)(F)F)c3)C(=O)N2C)cc1 [Example 153, (R)-4-[3,4-dimethyl-2,5-dioxo-4-(4-methoxyphenyl)imidazolidin-1-yl]-2-trifluoromethylbenzonitrile] |  |  | 5.66 nM
CN1C(=O)N(c2ccc(C#N)c(C(F)(F)F)c2)C(=O)C12CCc1cc(O)ccc12 (centres unmarked) [Example 181, 4-[2′,3′-dihydro-2,5-dioxo-5′-hydroxy-3-methylspiro(imidazolidin-4,1′(1H)inden)-1-yl]-2-trifluoromethylbenzonitrile] |  |  | 6 nM
C#CCN1C(=O)N(c2ccc(Cl)c(C(F)(F)F)c2)C(=O)C1c1ccc(O)cc1 (centres unmarked) [Example 68] |  |  | 24.49 nM
N#CCN1C(=O)N(c2ccc(F)c(C(F)(F)F)c2)C(=O)C1c1ccc(O)cc1 (centres unmarked) [Example 94] | 300 nM | 300 nM | 
CN(C)CCN1C(=O)N(c2ccc(C#N)c(C(F)(F)F)c2)C(=O)C1c1ccc(O)cc1 (centres unmarked) [Example 113] |  |  | 109.54 nM
N#CCCN1C(=O)N(c2ccc([N+](=O)[O-])c(C(F)(F)F)c2)C(=O)C1c1ccc(O)cc1 (centres unmarked) [Example 122] |  |  | 244.95 nM
CN1C(=O)N(c2ccc(C#N)c(O)c2)C(=O)[C@@]1(C)c1ccc(O)cc1 [Example 156.3, (R)-4-[3,4-dimethyl-2,5-dioxo-4-(4-hydroxyphenyl)imidazolidin-1-yl]-2-hydroxybenzonitrile] |  |  | 30 nM
COc1ccc(C2(C(F)(F)F)C(=O)N(c3ccc(C#N)c(C(F)(F)F)c3)C(=O)N2C)cc1 (centres unmarked) [Example 161, 4-[2,5-dioxo-4-(4-methoxyphenyl)-3-methyl-4-trifluoromethylimidazolidin-1-yl]-2-trifluoromethylbenzonitrile] |  |  | 60 nM
C#CCN1C(=O)N(c2cccc(C(F)(F)F)c2)C(=O)C1c1ccc(O)cc1 (centres unmarked) [Example 72] | 42.4 nM | 42.43 nM | 
CC1(c2ccc(O)cc2)C(=O)N(c2ccc(C#N)c(C(F)(F)F)c2)C(=O)N1CO (centres unmarked) [Example 228.1, 4-[2,5-dioxo-3-hydroxymethyl-4-(4-hydroxyphenyl)-4-methylimidazolidin-1-yl]-2-trifluoromethylbenzonitrile] |  |  | 150 nM
O=C1C(c2ccc(O)cc2)N(CCCCO)C(=O)N1c1ccc(F)c(C(F)(F)F)c1 (centres unmarked) [Example 135] |  |  | 600 nM
Cc1ccc(S(=O)(=O)N2C(=O)N(c3ccc(C#N)c(C(F)(F)F)c3)C(=O)C2(C)c2ccc(O)cc2)cc1 (centres unmarked) [Example 243.2, 4-[2,5-dioxo-4-(4-hydroxyphenyl)-4-methyl-3-[(4-methylphenyl)sulphonyl]imidazolidin-1-yl]-2-trifluoromethylbenzonitrile] |  |  | 150 nM
CCOCCCN1C(=O)N(c2ccc([N+](=O)[O-])c(C(F)(F)F)c2)C(=O)C1c1ccc(O)cc1 (centres unmarked) [Example 83] |  |  | 565.69 nM
C#CCN1C(=O)N(c2ccc(C#N)c(C(F)(F)F)c2)C(=O)[C@@]1(C)c1ccc(OC)cc1 [Example 154.1, (R)-4-[2,5-dioxo-4-(4-methoxyphenyl)-4-methyl-3-(2-propynyl)imidazolidin-1-yl]-2-trifluoromethylbenzonitrile] |  |  | 15 nM
CC(=O)OCC#CCN1C(=O)N(c2ccc(Cl)c(Cl)c2)C(=O)C1(C)c1ccc(O)cc1 (centres unmarked) [Example 223, 4-[1-(3,4-dichlorophenyl)-2,5-dioxo-4-methyl-4-(4-hydroxyphenyl)imidazolidin-3-yl]-2-butynyl acetate] | 12.3 nM | 12.25 nM | 
CC(=O)CN1C(=O)N(c2ccc(C#N)c(C(F)(F)F)c2)C(=O)C1(C)c1ccc(O)cc1 (centres unmarked) [Example 235, 4-[2,5-dioxo-4-(4-hydroxyphenyl)-4-methyl-3-(2-oxopropyl)imidazolidin-1-yl]-2-trifluoromethylbenzonitrile] |  |  | 8 nM
N#CCN1C(=O)N(c2cccc(C(F)(F)F)c2)C(=O)C1c1ccc(O)cc1 (centres unmarked) [Example 96] | 693 nM | 692.82 nM | 
CN1C(=O)N(c2ccc(C#N)c(C(F)(F)F)c2)C(=O)C1(C)c1ccc(O)c(F)c1 (centres unmarked) [Example 172, 4-[4-(3-fluoro-4-hydroxyphenyl)-3,4-dimethyl-2,5-dioxoimidazolidin-1-yl]-2-trifluoromethylbenzonitrile] |  |  | 8 nM
CN1C(=O)N(c2ccc([N+](=O)[O-])c(C(F)(F)F)c2)C(=O)C1c1ccc(O)cc1 (centres unmarked) [Example 45] |  |  | 100 nM

Continued, in another order:

EC50 | KSchild (nM) potency [1] | SMILES | KSchild (nM) potency
4 nM | 3 nM | C=CCN1C(=O)N(c2ccc(Cl)c(Cl)c2)C(=O)C1(C)c1ccc(O)cc1 (centres unmarked) [Example 20, 1-(3,4-dichlorophenyl)-4-(4-hydroxyphenyl)-4-methyl-3-(2-propenyl)imidazolidine-2,5-dione] | 
15 nM | 15 nM | CC1(c2ccc(O)cc2)C(=O)N(c2ccc(Cl)c(Cl)c2)C(=O)N1CCCCO (centres unmarked) [Example 22, 1-(3,4-dichlorophenyl)-3-(4-hydroxybutyl)-4-(4-hydroxyphenyl)-4-methylimidazolidine-2,5-dione] | 
89.4 nM | 89.44 nM | N#CCCN1C(=O)N(c2ccc(F)c(F)c2)C(=O)C1c1ccc(O)cc1 (centres unmarked) [Example 124] | 
42.4 nM | 30 nM | N#CCCN1C(=O)N(c2ccc(Cl)c(Cl)c2)C(=O)C1c1ccc(O)cc1 (centres unmarked) [Example 123] | 
77.5 nM | 77.46 nM | CN(C)CCN1C(=O)N(c2ccc(Cl)c(C(F)(F)F)c2)C(=O)C1c1ccc(O)cc1 (centres unmarked) [Example 117] | 
1500 nM | 1500 nM | N#CCN1C(=O)N(c2ccc(F)c(F)c2)C(=O)C1c1ccc(O)cc1 (centres unmarked) [Example 92] | 
69.3 nM | 69.28 nM | O=C1C(c2ccc(O)cc2)N(Cc2ccc3c(c2)OCO3)C(=O)N1c1ccc(Cl)c(Cl)c1 (centres unmarked) [Example 99] | 
69.3 nM | 69.28 nM | CCCN1C(=O)N(c2cccc(C(F)(F)F)c2)C(=O)C1c1ccc(O)cc1 (centres unmarked) [Example 59] | 
44.7 nM | 28.28 nM | O=C1C(c2ccc(O)cc2)N(CCO)C(=O)N1c1ccc(Cl)c(Cl)c1 (centres unmarked) [Example 139] | 
69.3 nM | 69.28 nM | O=C1C(c2ccc(O)cc2)N(CCCCO)C(=O)N1c1ccc(Cl)c(Cl)c1 (centres unmarked) [Example 132] | 
245 nM | 212.13 nM | N#CCCN1C(=O)N(c2ccc(F)c(Cl)c2)C(=O)C1c1ccc(O)cc1 (centres unmarked) [Example 127] | 
24.5 nM | 17.32 nM | CCOCCCN1C(=O)N(c2ccc(Cl)c(Cl)c2)C(=O)C1c1ccc(O)cc1 (centres unmarked) [Example 84] | 
300 nM | 300 nM | CC1(c2ccc(O)cc2)C(=O)N(c2ccc(Cl)c(Cl)c2)C(=O)N1CCCO (centres unmarked) [Example 147] | 
